One data set has as its system Lytechinus pictus. The data set can be described thus: Agonist activity at ryanodine receptor in sea urchin egg homogenates assessed as effect on calcium release at 30 uM by fluorimetry. It is filed as functional, tissue-based.
Data set [1] can be described thus: Antagonist activity at ryanodine receptor in sea urchin egg homogenates assessed as decrease in cADPcR-induced calcium release by fluorimetry. It is filed as functional, tissue-based, Lytechinus pictus.
Data set [2] in a line: Stability in human serum at 37 degC after 3 days. It counts as ADME, cell-free. Conditions: read-out: Stability.
A short description of data set [3]: Agonist activity at ryanodine receptor in sea urchin egg homogenates assessed as effect on calcium release by fluorimetry. It is filed as functional, Lytechinus pictus.

pEC50, pIC50: −log10 of the molar value. Active and inactive are the calls of the source. The calls are words filed in the database; no cut-off is given here.

As to `[N-]=[N+]=NCC[C@@H]1OP(=O)(O)OP(=O)([O-])OC[C@H]2O[C@H]([C@H](O)[C@@H]2O)n2cnc3c(N)[n+](cnc32)[C@@H]2C[C@H]1[C@@H](O)[C@H]2O`, the result in the data set with Lytechinus pictus was inactive. In data set [1], the pIC50 (commonly the IC50 on a negative log10 scale, so that one unit is a factor of ten) is 4.72. Moreover, the remaining at 72 h in data set [2] is 89%.
In the case of `[N-]=[N+]=NCC[C@H]1OP(=O)([O-])OP(=O)(O)OC[C@H]2O[C@H]([C@H](O)[C@@H]2O)n2cnc3c(N)[n+](cnc32)[C@@H]2C[C@H]1[C@@H](O)[C@H]2O`, the outcome in the data set on Lytechinus pictus was inactive. Moreover, in data set [1], the pIC50 is 4.85.
In the case of `NCC[C@H]1OP(=O)([O-])OP(=O)(O)OC[C@H]2O[C@H]([C@H](O)[C@@H]2O)n2cnc3c(N)[n+](cnc32)[C@@H]2C[C@H]1[C@@H](O)[C@H]2O`, the outcome in the data set with Lytechinus pictus was inactive. Further, the pIC50 in data set [1] was 4.14.
In the case of `Nc1c2ncn3c2nc[n+]1[C@@H]1C[C@H](COP(=O)([O-])OP(=O)(O)OC[C@H]2O[C@@H]3[C@H](O)[C@@H]2O)[C@@H](O)[C@H]1O`, the pEC50 (in general, −log10 of the EC50, conventionally taken in molar units) in data set [3] was 7.10.
On to `Nc1c2ncn3c2nc[n+]1[C@@H]1O[C@H](COP(=O)([O-])OP(=O)(O)OC[C@H]2O[C@@H]3[C@H](O)[C@@H]2O)[C@@H](O)[C@H]1O`, for which the pEC50 in data set [3] was 6.68.
With `NCC[C@@H]1OP(=O)([O-])OP(=O)(O)OC[C@H]2O[C@H]([C@H](O)[C@@H]2O)n2cnc3c(N)[n+](cnc32)[C@@H]2C[C@H]1[C@@H](O)[C@H]2O`, in the data set with Lytechinus pictus, the outcome was inactive. Further, the pIC50 in data set [1] is 3.92.
